Where two headings read alike, the source gives them in different places.
Experiments:
Assay type in all cases: cell-based
Conditions in all cases: 48 hours
[1] = tested on: PBMC from healthy human donors; experiment: T cell proliferation assay (PHA-stimulated human PBMC, BrdU ELISA)
In short: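 Healthy-donor PBMC isolated on Ficoll, seeded at 1×10⁵ cells/well in RPMI with 10% dialysed FCS, stimulated with 2 μg/ml PHA in presence of test compound. Proliferation read after 48 hours by BrdU-incorporation ELISA.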

IL-17FF = IL-17FF production by PHA-stimulated human PBMC (human IL-17F ELI-Pair)
In short: (§1)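 Inhibition of PHA-driven (2 μg/ml) cytokine release from human PBMC at 1×10^5 cells/well, 48 h compound exposure. IC50 from semilog titrations.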

IFN-γ = IFN-γ production by PHA-stimulated human PBMC (OptEIA human IFN-g ELISA)
In short: as §1

[2] = PHA-stimulated human PBMC, column D, read-out: IC50 (Tcell proliferation)
[3] = PHA-stimulated human PBMC, column B, read-out: IC50 (IL-17FF)
[4] = PHA-stimulated human PBMC, column C, read-out: IC50 (IFNγ)
[5] = human PBMC, 2 μg/ml PHA, read-out: D: IC50 (Tcell proliferation)
[6] = human PBMC, 2 μg/ml PHA, read-out: B: IC50 (IL-17FF)
[7] = human PBMC, 2 μg/ml PHA, read-out: C: IC50 (IFNγ)

| Structure (SMILES) | IC50 (IL-17FF; [3]) [nM] | IC50 (IFN-γ; [4]) [nM] | IC50 (IL-17FF; [6]) [nM] | IC50 (IFN-γ; [7]) [nM] | IC50 [1, 2] [nM] | IC50 [1, 5] [nM] |
| --- | --- | --- | --- | --- | --- | --- |
| COCCn1ncc(-c2onc(-c3c(F)cccc3Cl)c2C(=O)OC)c1C(F)(F)F [Example I-102, methyl 3-(2-chloro-6-fluorophenyl)-5-(1-(2-methoxyethyl)-5-(trifluoromethyl)-1H-pyrazol-4-yl)isoxazole-4-carboxylate] | 1000 to 10000 | 1000 to 10000 | – | – | 100 to 1000 | – |
| Oc1csc(-c2c(-c3c(F)cccc3Cl)noc2-c2cnn(-c3cccc(F)c3)c2C(F)(F)F)n1 [Example 9, 2-(3-(2-chloro-6-fluorophenyl)-5-(1-(3-fluorophenyl)-5-(trifluoromethyl)-1H-pyrazol-4-yl)isoxazol-4-yl)thiazol-4-ol] | – | – | 100 to 1000 | 100 to 1000 | – | 100 to 1000 |
| COC(=O)c1c(-c2c(F)cccc2Cl)noc1-c1cnn(-c2ccc(C(C)(C)C)cc2)c1C(F)(F)F [Example I-81, methyl 5-(1-(4-tert-butylphenyl)-5-(trifluoromethyl)-1H-pyrazol-4-yl)-3-(2-chloro-6-fluorophenyl)isoxazole-4-carboxylate] | 1000 to 10000 | 100 to 1000 | – | – | 1000 to 10000 | – |
| Fc1cccc(Cl)c1-c1noc(-c2cnn(-c3ccncc3)c2C(F)(F)F)c1-c1nnco1 [Example B-16, 2-(3-(2-chloro-6-fluorophenyl)-5-(1-(pyridin-4-yl)-5-(trifluoromethyl)-1H-pyrazol-4-yl)isoxazol-4-yl)-1,3,4-oxadiazole] | – | – | 100 to 1000 | 100 to 1000 | – | 100 to 1000 |
| Nc1c(-c2c(F)cccc2Cl)noc1-c1cnn(-c2cccc(F)c2)c1C(F)(F)F [Example I-117, 3-(2-chloro-6-fluorophenyl)-5-(1-(3-fluorophenyl)-5-(trifluoromethyl)-1H-pyrazol-4-yl)isoxazol-4-amine] | 100 to 1000 | 100 to 1000 | – | – | 100 to 1000 | – |
| COC(=O)c1c(-c2c(F)cccc2Cl)noc1-c1cnn(-c2c(F)c(F)cc(F)c2F)c1C(F)(F)F [Example I-47, methyl 3-(2-chloro-6-fluorophenyl)-5-(1-(2,3,5,6-tetrafluorophenyl)-5-(trifluoromethyl)-1H-pyrazol-4-yl)isoxale-4-carboxylate] | 100 to 1000 | 100 to 1000 | – | – | 100 to 1000 | – |
| Cc1nnc(-c2c(-c3c(F)cccc3Cl)noc2-c2cnn(-c3cccnc3)c2C(F)(F)F)s1 [Example B-21, 3-(2-chloro-6-fluorophenyl)-4-(5-methyl-1,3,4-thiadiazol-2-yl)-5-(1-(pyridin-3-yl)-5-(trifluoromethyl)-1H-pyrazol-4-yl)isoxazole] | – | – | 10 to 100 | 10 to 100 | – | 10 to 100 |
| COC(=O)c1c(-c2c(F)cccc2Cl)noc1-c1cnn(-c2ccc(S(C)(=O)=O)cc2)c1C(F)(F)F [Example I-85, methyl 3-(2-chloro-6-fluorophenyl)-5-(1-(4-(methylsulfonyl)phenyl)-5-(trifluoromethyl)-1H-pyrazol-4-yl)isoxazole-4-carboxylate] | 1000 to 10000 | 1000 to 10000 | – | – | 1000 to 10000 | – |
| CCOC(=O)c1c(-c2onc(-c3c(F)cccc3Cl)c2C(=O)OC)cnn1-c1cccc(F)c1 [Example I-8, methyl 3-(2-chloro-6-fluorophenyl)-5-(5-(ethoxycarbonyl)-1-(3-fluorophenyl)-1H-pyrazol-4-yl)isoxazole-4-carboxylate] | 100 to 1000 | 100 to 1000 | – | – | 100 to 1000 | – |
| Fc1cccc(Cl)c1-c1noc(-c2cnn(-c3cccc(Cl)c3)c2C(F)(F)F)c1-c1cnco1 [Example 8, 3-(2-chloro-6-fluorophenyl)-5-(1-(3-chlorophenyl)-5-(trifluoromethyl)-1H-pyrazol-4-yl)-4-(oxazol-5-yl)isoxazole] | – | – | < 10 | < 10 | – | < 10 |
| CCOC(=O)c1c(-c2c(F)cccc2Cl)noc1-c1cnn(-c2ccccc2F)c1C(F)(F)F [Example I-42, Ethyl 3-(2-chloro-6-fluorophenyl)-5-[1-(2-fluorophenyl)-5-(trifluoromethyl)-1H-pyrazol-4-yl]isoxazole-4-carboxylate] | 10 to 100 | < 10 | – | – | 10 to 100 | – |
| COC(=O)c1c(-c2c(F)cccc2Cl)noc1-c1cnn(-c2cc(F)cc(F)c2)c1C(F)(F)F [Example I-50, methyl 3-(2-chloro-6-fluorophenyl)-5-(1-(3,5-difluorophenyl)-5-(trifluoromethyl)-1H-pyrazol-4-yl)isoxazole-4-carboxylate] | < 10 | < 10 | – | – | < 10 | – |
| Fc1ccccc1-n1ncc(-c2onc(-c3c(F)cccc3Cl)c2-c2nnco2)c1C(F)(F)F [Example 15, 2-(3-(2-chloro-6-fluorophenyl)-5-(1-(2-fluorophenyl)-5-(trifluoromethyl)-1H-pyrazol-4-yl)isoxazol-4-yl)-1,3,4-oxadiazole] | – | – | 100 to 1000 | 100 to 1000 | – | 100 to 1000 |
| COC(=O)c1c(-c2ccccc2)noc1-c1cnn(-c2ccccc2F)c1C(F)(F)F [Example I-61, methyl 5-(1-(2-fluorophenyl)-5-(trifluoromethyl)-1H-pyrazol-4-yl)-3-phenylisoxazole-4-carboxylate] | 1000 to 10000 | 1000 to 10000 | – | – | 1000 to 10000 | – |
| Cc1nnc(-c2c(-c3c(F)cccc3Cl)noc2-c2cnn(-c3cccc(Cl)c3)c2C(F)(F)F)o1 [Example B-4, 2-(3-(2-chloro-6-fluorophenyl)-5-(1-(3-chlorophenyl)-5-(trifluoromethyl)-1H-pyrazol-4-yl)isoxazol-4-yl)-5-methyl-1,3,4-oxadiazole] | – | – | < 10 | < 10 | – | < 10 |
| COC(=O)c1c(-c2c(F)cccc2Cl)noc1-c1cnn(-c2cccc(Cl)c2)c1 [Example I-115, methyl 3-(2-chloro-6-fluorophenyl)-5-(1-(3-chlorophenyl)-1H-pyrazol-4-yl)isoxazole-4-carboxylate] | 1000 to 10000 | 1000 to 10000 | – | – | 1000 to 10000 | – |
| COC(=O)c1c(-c2c(F)cccc2Cl)noc1-c1cnn(-c2ccc(F)cc2)c1C(F)(F)F [Example I-3, methyl 3-(2-chloro-6-fluorophenyl)-5-(1-(4-fluorophenyl)-5-(trifluoromethyl)-1H-pyrazol-4-yl)isoxazole-4-carboxylate] | < 10 | < 10 | – | – | 10 to 100 | – |
| Cc1nnc(-c2c(-c3c(F)cccc3Cl)noc2-c2cnn(-c3cccc(S(N)(=O)=O)c3)c2C(F)(F)F)s1 [Example B-23, 3-(4-(3-(2-chloro-6-fluorophenyl)-4-(5-methyl-1,3,4-thiadiazol-2-yl)isoxazol-5-yl)-5-(trifluoromethyl)-1H-pyrazol-1-yl)benzenesulfonamide] | – | – | 1000 to 10000 | 1000 to 10000 | – | 1000 to 10000 |
| O=C(c1c(-c2c(F)cccc2Cl)noc1-c1cnn(-c2cccc(Cl)c2)c1C(F)(F)F)N1CCCO1 [Example I-132, (3-(2-chloro-6-fluorophenyl)-5-(1-(3-chlorophenyl)-5-(trifluoromethyl)-1H-pyrazol-4-yl)isoxazol-4-yl)(isoxazolidin-2-yl)methanone] | 10 to 100 | < 10 | – | – | 10 to 100 | – |

Second part, led by results:

| IC50 (IL-17FF; [3]) [nM] | IC50 (IFN-γ; [4]) [nM] | IC50 (IL-17FF; [6]) [nM] | IC50 (IFN-γ; [7]) [nM] | Structure (SMILES) | IC50 [1, 2] [nM] | IC50 [1, 5] [nM] |
| --- | --- | --- | --- | --- | --- | --- |
| < 10 | < 10 | – | – | CCOC(=O)c1c(-c2c(F)cccc2Cl)noc1-c1cnn(-c2cccnc2)c1C(F)(F)F [IB-37, ethyl 3-(2-chloro-6-fluorophenyl)-5-(1-(pyridin-3-yl)-5-(trifluoromethyl)-1H-pyrazol-4-yl)-isoxazole-4-carboxylate] | < 10 | – |
| < 10 | < 10 | – | – | CCOC(=O)c1c(-c2c(F)cccc2Cl)noc1-c1cnn(-c2ccncc2)c1C(F)(F)F [IB-38, ethyl 3-(2-chloro-6-fluorophenyl)-5-(1-(pyridin-4-yl)-5-(trifluoromethyl)-1H-pyrazol-4-yl)-isoxazole-4-carboxylate] | < 10 | – |
| 1000 to 10000 | 100 to 1000 | – | – | CCOC(=O)c1c(-c2ccncc2F)noc1-c1cnn(-c2ccccc2F)c1C(F)(F)F [IB-15, ethyl 5-(1-(2-fluorophenyl)-5-(trifluoromethyl)-1H-pyrazol-4-yl)-3-(3-fluoropyridin-4-yl)isoxazole-4-carboxylate] | 100 to 1000 | – |
| 10 to 100 | 10 to 100 | – | – | COC(=O)c1c(-c2ccccc2F)noc1-c1cnn(-c2cccc(Cl)c2)c1C(F)(F)F [IB-77, methyl 5-(1-(3-chlorophenyl)-5-(trifluoromethyl)-1H-pyrazol-4-yl)-3-(2-fluorophenyl)isoxazole-4-carboxylate] | 10 to 100 | – |
| 10 to 100 | < 10 | – | – | CC(C)OC(=O)c1c(-c2c(F)cccc2Cl)noc1-c1cnn(-c2cccnc2)c1C(F)(F)F [IB-61, isopropyl 3-(2-chloro-6-fluorophenyl)-5-(1-(pyridin-3-yl)-5-(trifluoromethyl)-1H-pyrazol-4-yl)isoxazole-4-carboxylate] | 10 to 100 | – |
| 100 to 1000 | 100 to 1000 | – | – | CCOC(=O)c1c(-c2ccc(Cl)cc2Cl)noc1-c1cnn(-c2cccc(Cl)c2)c1C(F)(F)F [IB-46, ethyl 5-(1-(3-chlorophenyl)-5-(trifluoromethyl)-1H-pyrazol-4-yl)-3-(2,4-dichlorophenyl)-isoxazole-4-carboxylate] | 100 to 1000 | – |
| 10 to 100 | 100 to 1000 | – | – | COC(=O)c1c(-c2ccc(Cl)cc2Cl)noc1-c1cnn(-c2cccc(Cl)c2)c1C(F)(F)F [IB-76, methyl 5-(1-(3-chlorophenyl)-5-(trifluoromethyl)-1H-pyrazol-4-yl)-3-(2,4-dichlorophenyl)isoxazole-4-carboxylate] | 100 to 1000 | – |

Source: US8354436B2 (4SC Discovery GmbH, priority 2011, dated 2013)
